How the values were obtained:
hOATP1B3 = target: T1, hOATP1B3 (Homo sapiens, UniProt Q9NPD5); assay: Uptake of aconitum alkaloids in hOATP1B3-transfected HEK293 cells vs mock; assay type: in vitro ADME; conditions: 10 μm, 2 min
T1 sequence (Q9NPD5 1-702): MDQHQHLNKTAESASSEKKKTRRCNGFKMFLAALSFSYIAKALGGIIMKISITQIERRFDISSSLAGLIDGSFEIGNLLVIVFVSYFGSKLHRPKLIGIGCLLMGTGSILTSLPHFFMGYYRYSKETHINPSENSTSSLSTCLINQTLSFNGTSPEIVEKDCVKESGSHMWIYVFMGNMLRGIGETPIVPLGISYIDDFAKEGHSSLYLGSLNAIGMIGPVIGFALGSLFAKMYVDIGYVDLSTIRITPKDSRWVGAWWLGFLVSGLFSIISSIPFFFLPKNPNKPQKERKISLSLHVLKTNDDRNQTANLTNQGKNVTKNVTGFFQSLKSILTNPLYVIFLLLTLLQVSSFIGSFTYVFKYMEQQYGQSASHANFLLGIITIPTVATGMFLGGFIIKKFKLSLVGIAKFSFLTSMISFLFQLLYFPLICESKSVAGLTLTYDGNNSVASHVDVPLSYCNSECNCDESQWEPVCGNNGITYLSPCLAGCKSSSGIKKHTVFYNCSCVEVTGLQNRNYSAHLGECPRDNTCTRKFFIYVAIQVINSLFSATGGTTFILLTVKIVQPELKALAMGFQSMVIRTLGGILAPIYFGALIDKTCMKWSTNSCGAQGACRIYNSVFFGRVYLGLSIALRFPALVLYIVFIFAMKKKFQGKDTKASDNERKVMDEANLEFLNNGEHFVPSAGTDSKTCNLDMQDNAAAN

hOCT1 = target: T2, hOCT1 (Homo sapiens, UniProt O15245); assay: Uptake of aconitum alkaloids in hOCT1-transfected cells vs mock; assay type: in vitro ADME; conditions: 10 μm, 5 min
T2 sequence (O15245 1-554): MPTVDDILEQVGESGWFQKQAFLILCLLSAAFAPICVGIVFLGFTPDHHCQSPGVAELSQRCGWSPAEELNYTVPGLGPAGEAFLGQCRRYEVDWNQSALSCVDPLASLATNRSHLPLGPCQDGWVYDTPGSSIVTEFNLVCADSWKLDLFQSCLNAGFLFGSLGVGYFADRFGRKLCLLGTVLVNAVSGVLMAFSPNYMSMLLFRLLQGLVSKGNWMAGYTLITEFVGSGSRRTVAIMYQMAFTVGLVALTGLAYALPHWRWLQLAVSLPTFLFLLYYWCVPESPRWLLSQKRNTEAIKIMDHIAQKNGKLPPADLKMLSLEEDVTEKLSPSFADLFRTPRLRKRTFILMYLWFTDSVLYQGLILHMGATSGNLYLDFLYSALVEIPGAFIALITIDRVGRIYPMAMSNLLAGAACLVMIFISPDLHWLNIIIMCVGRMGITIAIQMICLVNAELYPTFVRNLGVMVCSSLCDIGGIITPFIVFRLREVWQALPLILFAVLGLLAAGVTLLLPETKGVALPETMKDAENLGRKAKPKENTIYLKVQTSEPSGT

[1] = assay type: in vivo, Sprague-Dawley (SD) rats; conditions: aconitine 0.5 mg kg^−1 oral; pretreatment 15 min before; n = 6
[2] = assay type: in vivo, Sprague-Dawley (SD) rats; conditions: aconitine 0.5 mg kg^−1 oral; pretreatment 15 min before; n = 6; remark: listed apart in the source
OCT2 = conditions: read-out: Ki, competitive inhibition of OCT2; TEA probe substrate; cited from earlier work

CCN1C[C@]2(COC)[C@H](O)C[C@H](OC)[C@@]34[C@@H]5C[C@@]6(O)[C@H](OC(=O)c7ccccc7)[C@@H]5[C@@](OC(C)=O)([C@@H]([C@H](OC)[C@H]23)[C@@H]14)[C@@H](O)[C@@H]6OC [aconitine]
uptake in hOATP1B3-transfected cells, adjusted by protein concentration (hOATP1B3; HEK293-hOATP1B3): 344 pmol mg^−1 protein | concentration in hOATP1B3-transfected cells, fold of HEK293 mock cells (hOATP1B3; HEK293-hOATP1B3 vs mock): 1.35 fold | concentration in HEK293–hOCT1, fold higher than control (hOCT1): roughly 1.9 fold | AUC(0–2 h) of aconitine in rat liver [1]: 100.3 ± 8.9 ng/h/g | AUC(0–2 h) of aconitine in rat kidneys [2]: 60.5 ± 6.8 ng/h/g | Ki (OCT2): 145 µM

From article PMC9064382 (RSC Advances, 2019)
